Consider 33 molecules from US20250109119A1, “AMPK AGONISTS AND METHODS OF USE THEREOF” (Evvia Therapeutics, Inc., priority 2023, published 2025).

Structures are written as SMILES.

The test system of the first data set is AMPK. The experiment in a line: EC50 data of compounds of the disclosure (Table A; AMPK agonists). It is filed as biochemical. As to conditions: Table A '>10 μM'; cells list compound numbers.
Usually EC50 stands for the midpoint of the concentration-response curve. The molecule `COc1nc(N(C)C)ccc1-c1cc2c(C(=O)NOc3ccccc3)c[nH]c2cc1Cl` [compound 1012, 6-chloro-5-(6-(dimethylamino)-2-methoxypyridin-3-yl)-N-phenoxy-1H-indole-3-carboxamide] gave a concentration giving a half-maximal response (EC50) greater than 10 µM.

For `CCOc1nc(N(C)C)ccc1-c1cc2c(C(=O)NOC)c[nH]c2cc1Cl` [compound 1020, 6-chloro-5-(6-(dimethylamino)-2-ethoxypyridin-3-yl)-N-methoxy-1H-indole-3-carboxamide], the EC50 was greater than 10 µM.

`CONC(=O)c1c[nH]c2cc(Cl)c(-c3ccc(N(C)C)nc3C(F)(F)F)cc12` [compound 1021, 6-chloro-5-(6-(dimethylamino)-2-(trifluoromethyl)pyridin-3-yl)-N-methoxy-1H-indole-3-carboxamide] gave an EC50 greater than 10 µM.

For the molecule `CONS(=O)(=O)c1c[nH]c2cc(Cl)c(-c3ccc(N(C)C)nc3OC)cc12` [compound 1028, 6-chloro-5-(6-(dimethylamino)-2-methoxypyridin-3-yl)-N-methoxy-1H-indole-3-sulfonamide], the half-maximal effective concentration (EC50) is greater than 10 µM.

For the molecule `CONC(=O)c1c[nH]c2cc(Cl)c(-c3ccc(N(C)C)nc3O)cc12` [compound 1041], the EC50 was greater than 10 µM.

For `CONC(=O)c1c[nH]c2cc(Cl)c(-c3ccc(N4CCC(C)CC4)nc3OC)cc12` [compound 1049], the EC50 is greater than 10 µM.

In turn, `CONC(=O)c1c[nH]c2cc(Cl)c(-c3ccc(N4CC5(CCC5)C4)nc3OC)cc12` [compound 1050] gave an EC50 greater than 10 µM.

The molecule `COCCN(C)c1ccc(-c2cc3c(C(=O)NOC)c[nH]c3cc2Cl)c(OC)n1` [compound 1051] had an EC50 greater than 10 µM.

`CONC(=O)c1c[nH]c2cc(Cl)c(-c3ccc(N(C)CCOC(C)C)nc3OC)cc12` [compound 1052]: the concentration giving a half-maximal response (EC50) was greater than 10 µM.

`CONC(=O)c1c[nH]c2cc(Cl)c(-c3ccc(N(C)CC4CCC4)nc3OC)cc12` [compound 1054] yielded an EC50 greater than 10 µM.

On to `CONC(=O)c1c[nH]c2cc(Cl)c(-c3ccc(N4CCC(F)(F)CC4)nc3OC)cc12` [compound 1058], for which the EC50 is greater than 10 µM.

Molecule `COc1nc(N(C)C)ccc1-c1cc2c(C(=O)NOCCN(C)C)c[nH]c2cc1Cl` [compound 1060] gave a concentration for a half-maximal effect (EC50) greater than 10 µM.

Turning to `CONC(=O)c1c[nH]c2cc(Cl)c(-c3ccc(N(C)CCCN(C)C)nc3OC)cc12` [compound 1064], the EC50 was greater than 10 µM.

On to `CCN(CC)c1ccc(-c2cc3c(C(=O)NOC)c[nH]c3cc2Cl)c(OC)n1` [compound 1074], for which the EC50 was greater than 10 µM.

Regarding `CCONC(=O)c1c[nH]c2cc(Cl)c(-c3ccc(N(CC)CC)nc3OC)cc12` [compound 1075], the EC50 is greater than 10 µM.

`CCONC(=O)c1c[nH]c2cc(Cl)c(-c3ccc(N(C)C)nc3OC)nc12` [compound 1090] registered a concentration giving a half-maximal response (EC50) greater than 10 µM.

`CCONC(=O)c1c[nH]c2cc(Cl)c(-c3ccc(C#N)cc3OC)cc12` [compound 1097] had an EC50 greater than 10 µM.

In turn, `CCONC(=O)c1c[nH]c2cc(Cl)c(-c3ccc(C4(O)CCC4)nc3)cc12` [compound 1099] showed an EC50 greater than 10 µM.

Take `CCc1cc(N(C)C)ccc1-c1cc2c(C(=O)NOC)c[nH]c2cc1Cl` [compound 1100]: the EC50 is greater than 10 µM.

Consider `CCONC(=O)c1c[nH]c2cc(Cl)c(-c3ccc(C4(CO)CC4)nc3)cc12` [compound 1101], for which the EC50 was greater than 10 µM.

Molecule `CONS(=O)(=O)c1c[nH]c2cc(Cl)c(-c3ccc(C4CCCCO4)cc3)cc12` (stereo not shown) [compound 1109, 6-chloro-N-methoxy-5-(4-(tetrahydro-2H-pyran-2-yl)phenyl)-1H-indole-3-sulfonamide] showed an EC50 greater than 10 µM.

`CONS(=O)(=O)c1c[nH]c2cc(Cl)c(-c3ccc(-c4ccccc4)cc3)cc12` [compound 1110, 5-([1,1′-biphenyl]-4-yl)-6-chloro-N-methoxy-1H-indole-3-sulfonamide]: the concentration giving a half-maximal response (EC50) was greater than 10 µM.

The same data set, now with this note: Table A column head '<100 nM'; cells list compound numbers.
`CONC(=O)c1c[nH]c2cc(Cl)c(-c3ccc(N(C)C)nc3OC)cc12` [compound 1003, 6-chloro-5-(6-(dimethylamino)-2-methoxypyridin-3-yl)-N-methoxy-1H-indole-3-carboxamide] returned a concentration for a half-maximal effect (EC50) of less than 0.1 µM.

As for `CONC(=O)c1c[nH]c2cc(F)c(-c3ccc(C4CCCCO4)cc3)c(F)c12` (stereo not shown) [compound 1007, 4,6-difluoro-N-methoxy-5-(4-(tetrahydro-2H-pyran-2-yl)phenyl)-1H-indole-3-carboxamide], the EC50 was less than 0.1 µM.

Test system in the next data set: not listed separately
The experiment in a line: Blood Brain Barrier (BBB) data, brain/plasma ratio (Table B). It is filed as in vivo. As to conditions: brain and plasma; calculated at a 3 hr time point; Table B column heads <0.1, 0.1-1, >1; cells list compound numbers. How it is done: Blood Brain Barrier (BBB) data was evaluated for compounds of the disclosure and the values are shown in Table B. Brain/plasma ratio was calculated at a 3 hr time point).
The term Kp denotes tissue or fluid exposure divided by exposure in the circulation. Take `COc1nc(N(C)C)ccc1-c1cc2c(C(=O)NO)c[nH]c2cc1Cl` [compound 1001, 6-chloro-5-(6-(dimethylamino)-2-methoxypyridin-3-yl)-N-hydroxy-1H-indole-3-carboxamide]: the Kp at 3 h is less than 0.1.

For the molecule `CONC(=O)c1c[nH]c2cc(Cl)c(-c3ccc(N(C)C)nc3OC)cc12` [compound 1003, 6-chloro-5-(6-(dimethylamino)-2-methoxypyridin-3-yl)-N-methoxy-1H-indole-3-carboxamide], the concentration ratio (Kp) at 3 h was greater than 1.

For the molecule `CCONC(=O)c1c[nH]c2cc(Cl)c(-c3ccc(N(C)C)nc3OC)cc12` [compound 1009, 6-chloro-5-(6-(dimethylamino)-2-methoxypyridin-3-yl)-N-ethoxy-1H-indole-3-carboxamide], the concentration ratio (Kp) at 3 h is 0.1 to 1.

As for `COCCONC(=O)c1c[nH]c2cc(Cl)c(-c3ccc(N(C)C)nc3OC)cc12` [compound 1011, 6-chloro-5-(6-(dimethylamino)-2-methoxypyridin-3-yl)-N-(2-methoxyethoxy)-1H-indole-3-carboxamide], the Kp at 3 h was 0.1 to 1.

For `COc1nc(N(C)C)ccc1-c1cc2c(C(=O)NOCC3CC3)c[nH]c2cc1Cl` [compound 1015, 6-chloro-N-(cyclopropylmethoxy)-5-(6-(dimethylamino)-2-methoxypyridin-3-yl)-1H-indole-3-carboxamide], the Kp at 3 h was 0.1 to 1.

Regarding `COCCONC(=O)c1c[nH]c2cc(Cl)c(-c3ccc(C4(O)CCC4)cc3)cc12` [compound 1045], the Kp at 3 h was less than 0.1.

Consider `CONC(=O)C(=O)c1c[nH]c2cc(Cl)c(-c3ccc(N(C)C)nc3OC)cc12` [compound 1077, 2-(6-chloro-5-(6-(dimethylamino)-2-methoxypyridin-3-yl)-1H-indol-3-yl)-N-methoxy-2-oxoacetamide], for which the concentration ratio (Kp) at 3 h is less than 0.1.

Regarding `CCONC(=O)C(=O)c1c[nH]c2cc(Cl)c(-c3ccc(N(C)C)nc3OC)cc12` [compound 1081], the Kp at 3 h is less than 0.1.

Turning to `OCC1(c2ccc(-c3cc4c(-c5nnn[nH]5)c[nH]c4cc3Cl)s2)CC1` [compound 1084], the concentration ratio (Kp) at 3 h is less than 0.1.

As to `CS(=O)(=O)NC(=O)c1c[nH]c2cc(Cl)c(-c3ccc(-c4ccccc4)cc3)cc12` [compound 1112], the Kp at 3 h is less than 0.1.
